In patent publication US20020068712A1, “Use of decreasing levels of functional transient receptor potential gene product” (priority 1999, published 2002):

Key:
Type in all cases: cell-based, rat
[1] = system: RPAECs; assay: Whole cell patch clamp determination of store-operated Ca2+ entry
Experimental: Whole cell patch clamp was utilized to measure transmembrane ion flux in thapsigargin-stimulated RPAECs. Confluent RPAECs were enzyme dispersed, seeded onto 35-mm plastic culture dishes, and then allowed to reattach for at least 24 h before patch-clamp experiments were performed. […] These cells were chosen for study because their morphology was consistent with RPAECs from a confluent monolayer. The extracellular and pipette solutions were composed of the following (in mM): 1) extracellular: 110 tetraethylammonium aspartate, 10 calcium aspartate, 10 HEPES, and 0.5 3,4-diaminopyridine; and 2) pipette: 130 N-mehyl-D-glucamine, 1.15 EGTA, 10 HEPES, 1 Ca(OH)2, and 2 Mg^2+-ATP. Both solutions were adjusted to 290-300 mosM with sucrose and pH 7.4 with methane sulfonic acid, and [Ca^2+]i was estimated as 100 nM (10). The pipette resistance was 2-5 MΩ. Data were obtained with a HEKA EPC9 amplifier (Lambrecht/Pfaltz) and sampled on-line with Pulse+Pulsefit software (HEKA). All recordings were made at room temperature (22° C.). To generate current-voltage (I-V) relationships, voltage pulses were applied from −100 to +100 mV in 20-mV increments, with a 200-ms duration during each voltage step and a 2-s interval between steps. The holding potential between each step was 0 mV.

[2] = system: RPAECs; assay: Assessment of filamentous actin arrangement (confocal microscopy)
Experimental: Experiments to determine filamentous actin (F-actin) arrangement were conducted in parallel with those assessing endothelial cell shape. […] were seeded onto glass coverslips, and F-actin was stained with Oregon Green-phalloidin (Molecular Probes) with a standard fixation and staining protocol. Cells were analyzed by confocal microscopy (excitation at 496 nm and emmision at 520 nm). Micrographs were taken at multiple cellular depths (0.3-μm steps, 13-15 sections) and were used to deduce the microfilamentous cytoskeleton configurations of the cells.

[3] = system: RPAECs; assay: [Ca2+]i measurement by fura 2 fluorescence
Experimental: RPAECs were seeded onto chambered glass coverslips (Nalge Nunc, Naperville, Ill.) and grown to confluence. [Ca^2+]i was estimated with the Ca^2+-sensitive fluorophore fura 2-AM (Molecular Probes, Eugene, Oreg.) according to methods previously described by our laboratory (38). Because this is the first report of [Ca^2+]i measurements in cultured RPAECS, a summary of the technique will be presented. RPAECs were washed with 2 ml of a HEPES (Fisher Scientific, Atlanta, Ga.)-buffered physiological salt solution (PSS) containing (in g/l) 6.9 NaCl, 0.35 KCl, 0.16 KH2PO4, 0.141 MgSO4, 2.0 D-glucose, and 2.1 NaHCO3. The loading solution (1 ml) consisted of PSS plus 3 μM fura 2-AM, 3 μl of a 10% pluronic acid solution, and 2 mM or 100 nM CaCl2. RPAECs were fura loaded for 20 min in a CO2 incubator at 37° C. After this loading period, the cells were again washed with PSS (2 ml) and treated with deesterification medium (PSS+2 mM or 100 nM CaCl2) for an additional 20 min. After deesterification, [Ca^2+]i was assessed with an Olympus 1×70 inverted microscope at ×400 with a xenon arc lamp photomultiplier system (Photon Technologies, Monmouth Junction, N.J.), and data were acquired and analyzed with PTI Felix software. Epifluorescence (signal averaged) was measured from three to four endothelial cells in a confluent monolayer, and the changes in [Ca^2+]i are expressed as the fluorescence ratio of the Ca^2+-bound (340-nm) to Ca^2+-unbound (380-nm) excitation wavelengths emitted at 510 nm.

[4] = system: RPAECs; assay: Assessment of endothelial cell shape change (scanning electron micrographs)
Experimental: were seeded onto 35-mm plastic culture dishes and grown to confluence. Growth medium was replaced with experimental buffer (same as that used for [Ca^2+]i measurements but without fura 2), and the cells were subjected to one of the following protocols: 1) vehicle control (5 min) in 2 mM or 100 nM extracellular Ca^2+ concentration ([Ca^2+]o); 2) thapsigargin (1 μM, 5 min) in 2 mM or 100 nM ([Ca^2+]o; or 3) thapsigargin in 100 nM [Ca^2+]o+readdition of 2 mM CaCl2 (5 min). At the end of each experiment, the cell monolayers were fixed in 3% gluteraldehyde-PBS for 2 h. The cells were washed two times with 0.1 M cacodylate buffer, dehydrated by immersion in a series of ethanol dilutions, critical point dried in CO2, and covered with 20 nm of gold. Specimens were viewed at […] at a 15° inclination. Scanning electron micrographs were taken of representative areas in the monolayer by a pathologist blinded to the experimental protocols.

[5] = thapsigargin-stimulated current, data not shown
[6] = thapsigargin in 100 nM [Ca2+]o, then readdition of 2 mM [Ca2+]o

SMILES	effect on inward current at negative voltages [1, 5]	effect on outward current at positive voltages [1, 5]	F-actin arrangement ([2]; thapsigargin in low [Ca2+]o, then readdition of 2 mM [Ca2+]o)	F-actin arrangement ([2]; thapsigargin, 2 mM [Ca2+]o)	F-actin arrangement ([2]; thapsigargin, low (100 nM) [Ca2+]o, compared with low [Ca2+]o alone)	[Ca2+]i response (fura 2 340/380 fluorescence ratio) ([3]; thapsigargin 1 μM, 2 mM [Ca2+]o)	[Ca2+]i response after readdition of [Ca2+]o [3, 6]	peak and sustained plateau phases of [Ca2+]i response ([3]; thapsigargin, 100 nM [Ca2+]o)	net inward current stimulated ([1]; 1 μM thapsigargin in pipette, at −80 mV)	slope conductance ([1]; 1 μM thapsigargin in pipette, calculated from −100 to −20 mV without respect to cell capacitance)	effect on I-V curve ([1]; 1 μM thapsigargin in pipette, whole cell, 3-5 min)	endothelial cell shape / intercellular gaps ([4]; thapsigargin 1 μM, 5 min, 100 nM [Ca2+]o)	endothelial cell shape / intercellular gaps ([4]; thapsigargin 1 μM, 5 min, 2 mM [Ca2+]o)	endothelial cell shape / intercellular gaps [4, 6]
O=C(O)c1ccccc1Nc1ccccc1 [N-phenylanthranilic acid]	little effect	strongly attenuated												
C/C=C(/C)C(=O)O[C@H]1C(C)=C2[C@H]([C@@H]1OC(=O)CCCCCCC)[C@@](C)(OC(C)=O)C[C@H](OC(=O)CCC)[C@@]1(O)[C@H]2OC(=O)[C@@]1(C)O [Thapsigargin, thapsigargin]			appearance of dense, transcellular fibers and a decrease in peripheral F-actin staining	a decrease in peripheral F-actin density and an increase in the number and/or density of central transcellular F-actin filaments	only modest changes in F-actin arrangements	gradual increase in [Ca^2+]i to a peak level followed by a modest decline	immediate increase in [Ca^2+]i	significantly attenuated	5.45±0.90 pA/pF	1.64 nS	right shifted the I-V curve and increased the current magnitude	little change in morphology and a lack of interendothelial gaps	endothelial cell retraction and intercellular gap formation	pronounced cell retraction and gap formation
